One may read the pIC50 as the IC50 on a negative log10 scale, so that one unit is a factor of ten.

pIC50: −log10 of the molar value. Read-outs that look alike come from different tables or passages of the source.

This assay concerns the target T1, human DGKζ (Homo sapiens, UniProt Q13574).
T1 construct: made in house; host or cells: Sf9 insect cells, baculovirus
In words: Human DGKζ kinase activity inhibition assay (ADP-Glo). It counts as biochemical. On the procedure:
Human diacylglycerol kinase zeta (DGKζ) inhibitory activity of compounds of the present invention was quantified employing the human DGKζ kinase activity assay as described in the following paragraphs. In essence, the enzyme activity was measured by quantification of the adenosine-di-phosphate (ADP) generated as a co-product of the enzyme reaction via the “ADP-Glo™ Kinase Assay” kit from the company Promega. This detection system works as follows: In a first step the adenosine-tri-phosphate (ATP) not consumed in the kinase reaction is quantitatively converted to cyclic adenosine-mono-phosphate (cAMP) employing an adenylate cyclase (“ADP-Glo-reagent”), then the adenylate cyclase is stopped and the ADP generated in the kinase reaction is converted to ATP, which subsequently generates in a luciferase-based reaction a glow-luminescence signal (“Kinase Detection Reagent”).
C-terminally FLAG-tagged, recombinant full-length human DGKζ (inhouse expressed in baculovirus infected insect cells, purified using anti-Flag pulldown and size exclusion chromatography) was used as enzyme. As an alternative, commercially available enzyme by Carnabio can be used. As substrate for the kinase, 1,2-dioleoyl-sn-glycerol, reconstituted in octyl-β-D-glucopyranoside micelles, was used. […] Subsequently, 22.55 volumes of a 510 mM solution of octyl-β-D-glucopyranoside (Sigma-Aldrich, Cat. #O8001-10G) in 50 mM MOPS buffer (pH 7.4) were added, and the mixture was sonicated in an ultrasonic bath for 20 s. Then 35 volumes of 50 mM MOPS buffer (pH 7.4) were added to yield a solution of 0.28 mM 1,2 dioleoyl-sn-glycerol and 200 mM octyl-β-D-glucopyranoside, which was aliquoted, flash-frozen in liquid nitrogen, and stored at −20° C. until use.
For the assay 50 nl of a 100-fold concentrated solution of the test compound in dimethyl sulfoxide (DMSO, Sigma) was pipetted into either a white 1536-well or a white low-volume 384-well microtiter plate (both Greiner Bio-One, Frickenhausen, Germany). […] The concentration of DGKζ was adjusted depending of the activity of the enzyme lot and was chosen appropriate to have the assay in the linear range, a typical concentration is about 0.1 nM. The reaction was stopped by the addition of 2.5 μL of “ADP-Glo-reagent” (1 to 1.5 diluted with water) and the resulting mixture was incubated at 22° C. for 1 h to convert the ATP not consumed in the kinase reaction completely to cAMP. Subsequently 2.5 μl of the “kinase detection reagent” (1.2 fold more concentrated than recommended by the producer) were added, the resulting mixture was incubated at 22° C. for 1 h and then the luminescence measured with a suitable measurement instrument (e.g. Viewlux™ from Perkin-Elmer). The amount of emitted light was taken as a measure for the amount of ADP generated and thereby for the activity of the DGKζ.
The data were normalised (enzyme reaction without inhibitor=0% inhibition, all other assay components but no enzyme=100% inhibition).
For orientation: ADP-Glo first removes unused ATP, then detects ADP through luciferase.

Setting [1] is: example compounds, recombinant full-length human DGKζ, 1,2-dioleoyl-sn-glycerol 7 μM, ATP 55 μM, 20 min at 22° C., read-out: IC50 values of examples in in vitro human DGKζ kinase activity inhibition assays.

T1 sequence (Q13574 with tags, fused parts or gaps): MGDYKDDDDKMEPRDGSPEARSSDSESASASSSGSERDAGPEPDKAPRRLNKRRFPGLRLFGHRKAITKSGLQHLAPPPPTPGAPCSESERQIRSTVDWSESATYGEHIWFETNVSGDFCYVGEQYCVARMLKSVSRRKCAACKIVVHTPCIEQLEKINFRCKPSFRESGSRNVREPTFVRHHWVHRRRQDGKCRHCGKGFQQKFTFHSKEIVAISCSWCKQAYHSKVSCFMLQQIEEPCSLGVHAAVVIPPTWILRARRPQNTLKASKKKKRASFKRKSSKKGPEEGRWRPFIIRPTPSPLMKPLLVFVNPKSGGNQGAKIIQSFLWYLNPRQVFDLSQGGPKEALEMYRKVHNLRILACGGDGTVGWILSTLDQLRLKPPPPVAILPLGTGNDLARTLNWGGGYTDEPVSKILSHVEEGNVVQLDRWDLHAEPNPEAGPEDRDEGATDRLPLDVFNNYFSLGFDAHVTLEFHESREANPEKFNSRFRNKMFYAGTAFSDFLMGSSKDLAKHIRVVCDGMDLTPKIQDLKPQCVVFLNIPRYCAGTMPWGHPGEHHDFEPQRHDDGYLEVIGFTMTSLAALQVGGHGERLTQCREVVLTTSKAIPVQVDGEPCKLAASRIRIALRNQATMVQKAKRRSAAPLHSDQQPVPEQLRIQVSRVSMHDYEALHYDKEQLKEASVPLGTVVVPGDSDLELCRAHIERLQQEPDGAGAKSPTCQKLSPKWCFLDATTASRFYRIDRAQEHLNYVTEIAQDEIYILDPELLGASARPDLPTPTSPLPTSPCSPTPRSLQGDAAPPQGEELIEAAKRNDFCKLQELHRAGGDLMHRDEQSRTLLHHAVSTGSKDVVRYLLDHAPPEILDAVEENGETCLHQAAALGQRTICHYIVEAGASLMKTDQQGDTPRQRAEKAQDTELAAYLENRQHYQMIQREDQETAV

For the compound `CC(C(N)=O)N(c1ccc(F)cc1)c1nc(N)c(C(=O)c2nc(C3CCCC3)no2)s1` (racemic) [Example 59, rac-2-(N-[4-amino-5-(3-cyclopentyl-1,2,4-oxadiazole-5-carbonyl)thiazol-2-yl]-4-fluoro-anilino)propanamide], the pIC50 under setting [1] was 7.92.
With `CC(C(N)=O)N(c1ccc(F)cc1)c1nc(N)c(C(=O)c2cc(CNC3CCCC3)no2)s1` (racemic) [Example 62, rac-2-(N-[4-amino-5-[3-[(cyclopentylamino)methyl]isoxazole-5-carbonyl]thiazol-2-yl]-4-fluoro-anilino)propanamide], the pIC50 under setting [1] is 6.71.
Same read-out and setting: with `CC(C(N)=O)N(c1ccc(F)cc1)c1nc(N)c(C(=O)c2cc(C(=O)N3CCCCC3)no2)s1` (racemic) [Example 27, rac-2-(N-[4-amino-5-[3-(piperidine-1-carbonyl)isoxazole-5-carbonyl]thiazol-2-yl]-4-fluoro-anilino)propanamide] the figure was 6.83; with `CC(C(N)=O)N(c1ccc(F)c(F)c1)c1nc(N)c(C(=O)c2cc(C(=O)NC3(C)CCC3)no2)s1` (single isomer, unassigned) [Example 44.2, 5-[4-amino-2-(N-(2-amino-1-methyl-2-oxo-ethyl)-3,4-difluoro-anilino)thiazole-5-carbonyl]-N-(1-methylcyclobutyl)isoxazole-3-carboxamide], 5.35.
The same measure, in the same setting: under `CC(C(N)=O)N(c1ccc(F)cc1)c1nc(N)c(C(=O)c2cc(CN(C)C3CCCC3)no2)s1` (racemic) [Example 60, rac-2-(N-[4-amino-5-[3-[[cyclopentyl(methyl)amino]methyl]isoxazole-5-carbonyl]thiazol-2-yl]-4-fluoro-anilino)propanamide] stands 7.24; under `CC(C(N)=O)N(c1ccc(F)cc1)c1nc(N)c(C(=O)c2cc(C(=O)Nc3ccccc3)no2)s1` (racemic) [Example 10, rac-5-[4-amino-2-(N-(2-amino-1-methyl-2-oxo-ethyl)-4-fluoro-anilino)thiazole-5-carbonyl]-N-phenyl-isoxazole-3-carboxamide], 7.64.
On to “rac-2-(N-[4-amino-5-[3-(pyrrolidine-1-carbonyl)isoxazole-5-carbonyl]thiazol-2-yl]-4-fluoro-anilino)propanamide [Example 19]”, for which, for the setting “intermediates (comparative, lacking the R2 alkyl-carboxamide group), same assay conditions, read-out: IC50 values of intermediates in in vitro human DGKζ kinase activity inhibition assays”, the pIC50 is less than 4.70.
Regarding `CC(C(N)=O)N(c1ccc(F)cc1)c1nc(N)c(C(=O)c2cc(C(=O)Nc3ccncc3)no2)s1` (racemic) [Example 16, rac-5-[4-amino-2-(N-(2-amino-1-methyl-2-oxo-ethyl)-4-fluoro-anilino)thiazole-5-carbonyl]-N-(4-pyridyl)isoxazole-3-carboxamide], the negative logarithm of the IC50 (pIC50) under setting [1] was 6.38.
The same measure, in the same setting: with `CC(C(N)=O)N(c1ccc(F)cc1)c1nc(N)c(C(=O)c2cc(-c3ccccc3)ns2)s1` (racemic) [Example 50, rac-2-(N-[4-amino-5-(3-phenylisothiazole-5-carbonyl)thiazol-2-yl]-4-fluoro-anilino)propanamide] the figure was 6.39; with `CC(C(N)=O)N(c1ccc(F)cc1)c1nc(N)c(C(=O)c2cc(C(=O)NC3CCC3)no2)s1` (racemic) [Example 21, rac-5-[4-amino-2-(N-(2-amino-1-methyl-2-oxo-ethyl)-4-fluoro-anilino)thiazole-5-carbonyl]-N-cyclobutyl-isoxazole-3-carboxamide], 6.53; with `CC(C(N)=O)N(c1ccc(F)cc1)c1nc(N)c(C(=O)c2cc(CN3CCC(F)C3)no2)s1` (mixture of isomers) [Example 77, 2-(N-[4-amino-5-[3-[(3-fluoropyrrolidin-1-yl)methyl]isoxazole-5-carbonyl]thiazol-2-yl]-4-fluoro-anilino)propanamide], 6.62.
Same read-out and setting: under `CC(C(N)=O)N(c1ccc(F)cc1)c1nc(N)c(C(=O)c2nc(C(C)(C)C)no2)s1` (racemic) [Example 53, rac-2-(N-[4-amino-5-(3-tert-butyl-1,2,4-oxadiazole-5-carbonyl)thiazol-2-yl]-4-fluoro-anilino)propanamide] stands 7.60.
On the same count and under the same terms, under `C[C@H](C(N)=O)N(c1ccc(F)cc1)c1nc(N)c(C(=O)c2cc(-c3ccccc3)no2)s1` [Example 3.1, (R)-2-(N-[4-amino-5-(3-phenylisoxazole-5-carbonyl)thiazol-2-yl]-4-fluoro-anilino)propanamide] stands 7.21.
With `CC(C(N)=O)N(c1ccc(F)cc1)c1nc(N)c(C(=O)c2nc(C3CC3)no2)s1` (racemic) [Example 57, rac-2-(N-[4-amino-5-(3-cyclopropyl-1,2,4-oxadiazole-5-carbonyl)thiazol-2-yl]-4-fluoro-anilino)propanamide], the pIC50 under setting [1] was 7.49.
On the same count and under the same terms, under `CC(C(N)=O)N(c1ccc(F)cc1)c1nc(N)c(C(=O)c2cc(C(=O)N3CCCC3)no2)s1` (racemic) [Example 19, rac-2-(N-[4-amino-5-[3-(pyrrolidine-1-carbonyl)isoxazole-5-carbonyl]thiazol-2-yl]-4-fluoro-anilino)propanamide] stands 6.50; under `CC(C(N)=O)N(c1ccc(F)cc1)c1nc(N)c(C(=O)c2cc(C(=O)NCC(F)F)no2)s1` (racemic) [Example 17, rac-5-[4-amino-2-(N-(2-amino-1-methyl-2-oxo-ethyl)-4-fluoro-anilino)thiazole-5-carbonyl]-N-(2,2-difluoroethyl)isoxazole-3-carboxamide], 6.16.
On the same count and under the same terms, under `CC(C(N)=O)N(c1ccc(F)c(F)c1)c1nc(N)c(C(=O)c2cc(C(=O)NC3CCCC3)no2)s1` (single isomer, unassigned) [Example 46.2, 5-[4-amino-2-(N-(2-amino-1-methyl-2-oxo-ethyl)-3,4-difluoro-anilino)thiazole-5-carbonyl]-N-cyclopentyl-isoxazole-3-carboxamide] stands 5.64; under `CC(C(N)=O)N(c1ccc(F)cc1)c1nc(N)c(C(=O)c2cc(C(=O)NC3CCC(F)(F)C3)no2)s1` (racemic) [Example 33, 5-[4-amino-2-(N-(2-amino-1-methyl-2-oxo-ethyl)-4-fluoro-anilino)thiazole-5-carbonyl]-N-(3,3-difluorocyclopentyl)isoxazole-3-carboxamide], 7.32; under `CC(C(N)=O)N(c1ccc(F)cc1)c1nc(N)c(C(=O)c2cc(CN3CC(F)(F)C3)no2)s1` (racemic) [Example 74, rac-2-(N-[4-amino-5-[3-[(3,3-difluoroazetidin-1-yl)methyl]isoxazole-5-carbonyl]thiazol-2-yl]-4-fluoro-anilino)propanamide], 6.95.
The same measure, in the same setting: under `COCC(C)NC(=O)c1cc(C(=O)c2sc(N(c3ccc(F)cc3)C(C)C(N)=O)nc2N)on1` (racemic) [Example 36, 5-[4-amino-2-(N-(2-amino-1-methyl-2-oxo-ethyl)-4-fluoro-anilino)thiazole-5-carbonyl]-N-(2-methoxy-1-methyl-ethyl)isoxazole-3-carboxamide] stands 6.35.
In the case of `CC(C(N)=O)N(c1ccc(F)cc1)c1nc(N)c(C(=O)c2cc(C(=O)N[C@H]3C[C@H](F)C3)no2)s1` (mixture of isomers) [Example 42, 5-[4-amino-2-(N-(2-amino-1-methyl-2-oxo-ethyl)-4-fluoro-anilino)thiazole-5-carbonyl]-N-(trans-3-fluorocyclobutyl)isoxazole-3-carboxamide], under setting [1], the pIC50 was 6.84.
The same measure, in the same setting: under `CC(C(N)=O)N(c1ccc(F)cc1)c1nc(N)c(C(=O)c2cc(C(=O)NCC(F)(F)F)no2)s1` (racemic) [Example 23, rac-5-[4-amino-2-(N-(2-amino-1-methyl-2-oxo-ethyl)-4-fluoro-anilino)thiazole-5-carbonyl]-N-(2,2,2-trifluoroethyl)isoxazole-3-carboxamide] stands 6.67.
`CC(C(N)=O)N(c1ccc(F)cc1)c1nc(N)c(C(=O)c2cc(OCc3ccccc3)no2)s1` (racemic) [Example 2, rac-2-(N-[4-amino-5-(3-benzyloxyisoxazole-5-carbonyl)thiazol-2-yl]-4-fluoro-anilino)propanamide]: the negative logarithm of the IC50 (pIC50) under setting [1] is 7.57.

These data come from patent US20230167103A1 (Bayer Aktiengesellschaft, priority 2020, published 2023).
